From patent publication US20130089599A1, “NANO-ENCAPSULATED THERAPEUTICS FOR CONTROLLED TREATMENT OF INFECTION AND OTHER DISEASES” (The United States of America as Represented by the …, priority 2011, published 2013)
≈ marks a conversion by molar mass, not a printed value. One block for each molecule: values may come before it.

How the values were obtained:
[1] = test system: A. bumannii; assay: in vitro antibacterial activity (MIC50); type: cell-based; settings: for Amount of Antimicrobial Agent required for Inhibition / in vitro antibacterial activity of individual antibiotic (MIC50) / MIC50: A. bumannii; for reduction of MIC50 of Rifampicin in cocktail with silver (control = 1) / reduction of MIC50 of Tobramycin in cocktail with silver (control = 1): A. baumannii
[2] = test system: P. aeruginosa; assay: in vitro antibacterial activity (MIC50); type: cell-based
[3] = test system: P. mirabilis; assay: in vitro antibacterial activity (MIC50); type: cell-based
[4] = test system: 4 bacterial strains (A. bumannii, P. aeruginosa, P. mirabilis and S. aureus); assay: in vitro antibacterial activity (MIC50), summary over strains; type: cell-based; settings: against all 4 bacterial strains
[5] = test system: S. aureus; assay: in vitro antibacterial activity (MIC50); type: cell-based; settings: for MIC50: Staphylococcus aureus
[6] = test system: A. baumannii; assay: MIC50 for inhibition ring formation (MICfir), agar plate; type: cell-based; settings: Acinetobacter baumannii; A.b; read-out: 50% minimum inhibitory concentrations (MIC50) needed for growth ring formation
[7] = test system: P. aeruginosa; assay: as above; type: cell-based; settings: Pseudomonas aeruginosa; P.a; read-out: 50% minimum inhibitory concentrations (MIC50) needed for growth ring formation
[8] = test system: P.m; assay: as above; type: cell-based; settings: Proteus mirabilis, read-out: 50% minimum inhibitory concentrations (MIC50) needed for growth ring formation
[9] = test system: S. aureus; assay: as above; type: cell-based; settings: Staphylococcus aureus; S.a; read-out: 50% minimum inhibitory concentrations (MIC50) needed for growth ring formation
[10] = test system: S. aureus methicillin resistant strain; assay: as above; type: cell-based; settings: Staphylococcus aureus, MRSA; read-out: 50% minimum inhibitory concentrations (MIC50) needed for growth ring formation
[11] = test system: K. pneumoniae; assay: as above; type: cell-based; settings: Klebsiella pneumoniae; K.p; read-out: 50% minimum inhibitory concentrations (MIC50) needed for growth ring formation
[12] = test system: A. baumannii; assay: effect of storage time on antibiotic functionality; type: physicochemical; settings: 1 mg/ml solution stored at 37° C., day 0 to day 35
Procedure: The effect of storage time on antibiotic functionality of tobramycin and rifampicin against A. baumannii were also tested. Tobramycin and rifampicin solutions (1 mg/ml in water and DMSO, respectively) were kept at room temperature (24° C.) or 37° C. for up to 35 days, and the antimicrobial activities of the antibiotics at different time points were tested by applying the antibiotics to A. Baumannii. MIC50 were determined and compared. […] P values for tobramycin and rifampicin (from day 0 to day 35) are 0.593 and 0.442 respectively (FIG. 3)

- in vitro antibacterial activity of individual antibiotic (MIC50) [1]: 2.72 ± 0.68 mg/mL
- in vitro antibacterial activity of individual antibiotic (MIC50) [2]: >1000 mg/mL
- in vitro antibacterial activity of individual antibiotic (MIC50) [3]: 23.88 ± 8.43 mg/mL
SMILES: CCC[C@@H]1C[C@@H](C(=O)N[C@@H]([C@H]2O[C@H](SC)[C@H](O)[C@@H](O)[C@H]2O)[C@H](C)Cl)N(C)C1 [Clindamycin]
- Amount of Antimicrobial Agent required for Inhibition [1]: 2.72 ± 0.68 mg/mL
- Amount of Antimicrobial Agent required for Inhibition [2]: >1000 mg/mL
- Amount of Antimicrobial Agent required for Inhibition [3]: 23.88 ± 8.43 mg/mL

- in vitro antibacterial activity of individual antibiotic (MIC50) [1]: 10.25 ± 2.33 mg/mL
- in vitro antibacterial activity of individual antibiotic (MIC50) [2]: 0.91 ± 0.56 mg/mL
- in vitro antibacterial activity of individual antibiotic (MIC50) [3]: 1.02 ± 0.01 mg/mL
- MIC50 [4]: < 10 µg/mL
SMILES: C[C@@H](O)[C@H]1C(=O)N2C(C(=O)O)=C(SCCN=CN)C[C@H]12 [Imipenem]
- Amount of Antimicrobial Agent required for Inhibition [1]: 10.25 ± 2.33 mg/mL
- Amount of Antimicrobial Agent required for Inhibition [2]: 0.91 ± 0.56 mg/mL
- Amount of Antimicrobial Agent required for Inhibition [3]: 1.02 ± 0.01 mg/mL

- MIC50 [1]: ≤ 1 µg/mL
- in vitro antibacterial activity of individual antibiotic (MIC50) [1]: 0.085 ± 0.01 mg/mL
- in vitro antibacterial activity of individual antibiotic (MIC50) [2]: 19.08 ± 6.14 mg/mL
- in vitro antibacterial activity of individual antibiotic (MIC50) [3]: 3.77 ± 0.92 mg/mL
- MIC50 [5]: ≤ 1 µg/mL
- MIC50 [4]: < 10 µg/mL
- MIC50 [6]: 45 ± 2.6 µg/mL (≈ 54.7 µM)
- MIC50 [7]: 185 ± 15.8 µg/mL (≈ 225 µM)
- MIC50 [8]: 26 ± 3.5 µg/mL (≈ 31.6 µM)
- MIC50 [9]: 0.02 ± 0.001 µg/mL (≈ 0.0243 µM)
- MIC50 [10]: 0.02 ± 0.001 µg/mL (≈ 0.0243 µM)
- MIC50 [11]: 45 ± 3.6 µg/mL (≈ 54.7 µM)
SMILES: CO[C@H]1/C=C/O[C@@]2(C)Oc3c(C)c(O)c4c(O)c(c(/C=N/N5CCN(C)CC5)c(O)c4c3C2=O)NC(=O)/C(C)=C\C=C\[C@H](C)[C@H](O)[C@@H](C)[C@@H](O)[C@@H](C)[C@H](OC(C)=O)[C@@H]1C [Rifampicin]
- Amount of Antimicrobial Agent required for Inhibition [1]: 0.085 ± 0.01 mg/mL
- Amount of Antimicrobial Agent required for Inhibition [2]: 19.08 ± 6.14 mg/mL
- Amount of Antimicrobial Agent required for Inhibition [3]: 3.77 ± 0.92 mg/mL

SMILES: [Ag+] [Silver Ion]
- Amount of Antimicrobial Agent required for Inhibition [1]: 1.52 ± 0.73 mg/mL
- reduction of MIC50 of Rifampicin in cocktail with silver (control = 1) ([1]; Silver Ion at Mic 12.5): 1.73 fold
- reduction of MIC50 of Tobramycin in cocktail with silver (control = 1) ([1]; Silver Ion at Mic 12.5): 2 fold
- reduction of MIC50 of Rifampicin in cocktail with silver (control = 1) ([1]; Silver Ion at Mic 25): 3.6 fold
- reduction of MIC50 of Tobramycin in cocktail with silver (control = 1) ([1]; Silver Ion at Mic 25): 4.2 fold
- reduction of MIC50 of Rifampicin in cocktail with silver (control = 1) ([1]; Silver Ion at Mic 50): 9 fold
- Amount of Antimicrobial Agent required for Inhibition [2]: 5.34 ± 3.07 mg/mL
- reduction of MIC50 of Rifampicin in cocktail with silver (control = 1) ([2]; Silver Ion at Mic 12.5): 1.6 fold
- reduction of MIC50 of Tobramycin in cocktail with silver (control = 1) ([2]; Silver Ion at Mic 12.5): 1.6 fold
- reduction of MIC50 of Rifampicin in cocktail with silver (control = 1) ([2]; Silver Ion at Mic 25): 4.1 fold
- reduction of MIC50 of Tobramycin in cocktail with silver (control = 1) ([2]; Silver Ion at Mic 25): 4.1 fold
- reduction of MIC50 of Rifampicin in cocktail with silver (control = 1) ([2]; Silver Ion at Mic 50): 10.4 fold
- reduction of MIC50 of Tobramycin in cocktail with silver (control = 1) ([2]; Silver Ion at Mic 50): 10.4 fold
- Amount of Antimicrobial Agent required for Inhibition [3]: 4.56 ± 1.49 mg/mL
- reduction of MIC50 of Rifampicin in cocktail with silver (control = 1) ([3]; Silver Ion at Mic 12.5): 0.74 fold
- reduction of MIC50 of Tobramycin in cocktail with silver (control = 1) ([3]; Silver Ion at Mic 12.5): 0.74 fold
- reduction of MIC50 of Rifampicin in cocktail with silver (control = 1) ([3]; Silver Ion at Mic 25): 2.4 fold
- reduction of MIC50 of Tobramycin in cocktail with silver (control = 1) ([3]; Silver Ion at Mic 25): 2.5 fold
- reduction of MIC50 of Rifampicin in cocktail with silver (control = 1) ([3]; Silver Ion at Mic 50): 6.3 fold
- reduction of MIC50 of Tobramycin in cocktail with silver (control = 1) ([3]; Silver Ion at Mic 50): 6.5 fold
- reduction of MIC50 of Rifampicin in cocktail with silver (control = 1) ([5]; Silver Ion at Mic 12.5): 1 fold
- reduction of MIC50 of Tobramycin in cocktail with silver (control = 1) ([5]; Silver Ion at Mic 12.5): 1.13 fold
- reduction of MIC50 of Rifampicin in cocktail with silver (control = 1) ([5]; Silver Ion at Mic 25): 9.3 fold
- reduction of MIC50 of Tobramycin in cocktail with silver (control = 1) ([5]; Silver Ion at Mic 25): 9.3 fold
- reduction of MIC50 of Rifampicin in cocktail with silver (control = 1) ([5]; Silver Ion at Mic 50): 21 fold
- reduction of MIC50 of Tobramycin in cocktail with silver (control = 1) ([5]; Silver Ion at Mic 50): 21 fold

- MIC50 [1]: ≤ 1 µg/mL
- in vitro antibacterial activity of individual antibiotic (MIC50) [1]: 1.05 ± 0.02 mg/mL
- in vitro antibacterial activity of individual antibiotic (MIC50) [2]: 0.44 ± 0.12 mg/mL
- in vitro antibacterial activity of individual antibiotic (MIC50) [3]: 7.2 ± 0.73 mg/mL
- MIC50 [5]: ≤ 1 µg/mL
- MIC50 [4]: < 10 µg/mL
- change of MIC50 on storage (antibiotic functionality) [12]: no significantly change
- MIC50 [6]: 7.1 ± 0.5 µg/mL (≈ 15.2 µM)
- MIC50 [7]: 5.6 ± 0.2 µg/mL (≈ 12 µM)
- MIC50 [8]: 3.1 ± 0.2 µg/mL (≈ 6.63 µM)
- MIC50 [9]: 2.2 ± 0.16 µg/mL (≈ 4.71 µM)
- MIC50 [10]: > 200 µg/mL
- MIC50 [11]: 0.38 ± 0.05 µg/mL (≈ 0.813 µM)
SMILES: NC[C@H]1O[C@H](O[C@H]2[C@H](O)[C@@H](O[C@H]3O[C@H](CO)[C@@H](O)[C@H](N)[C@H]3O)[C@H](N)C[C@@H]2N)[C@H](N)C[C@@H]1O [Tobramycin]
- Amount of Antimicrobial Agent required for Inhibition [1]: 1.05 ± 0.02 mg/mL
- Amount of Antimicrobial Agent required for Inhibition [2]: 0.44 ± 0.12 mg/mL
- Amount of Antimicrobial Agent required for Inhibition [3]: 7.2 ± 0.73 mg/mL

SMILES: CN[C@H](CC(C)C)C(=O)N[C@H]1C(=O)N[C@@H](CC(N)=O)C(=O)N[C@H]2C(=O)N[C@H]3C(=O)N[C@H](C(=O)N[C@H](C(=O)O)c4cc(O)cc(O)c4-c4cc3ccc4O)[C@H](O)c3ccc(c(Cl)c3)Oc3cc2cc(c3O[C@@H]2O[C@H](CO)[C@@H](O)[C@H](O)[C@H]2O[C@H]2C[C@](C)(N)[C@H](O)[C@H](C)O2)Oc2ccc(cc2Cl)[C@H]1O [Vancomycin]
- Amount of Antimicrobial Agent required for Inhibition [1]: 79.4 ± 4.1 mg/mL
- in vitro antibacterial activity of individual antibiotic (MIC50) [1]: 79.4 ± 4.1 mg/mL
- Amount of Antimicrobial Agent required for Inhibition [2]: >1000 mg/mL
- in vitro antibacterial activity of individual antibiotic (MIC50) [2]: >1000 mg/mL
- Amount of Antimicrobial Agent required for Inhibition [3]: >1000 mg/mL
- in vitro antibacterial activity of individual antibiotic (MIC50) [3]: >1000 mg/mL
